Reference: patent US20160146815A1, “METHOD FOR SCREEING CANCER METASTASIS INHIBITOR USING CULTURE OF CELLS OR SPHEROIDICALLY AGGREGATED CELLS IN WHICH LYSYL-TRNA SYNTHETASE IS REGULATED TO BE EXPRESSED OR UNEXPRESSED” (Medicinal Bioconvergence Research Center, priority 2013, published 2016)
Entries after “also recorded” stand apart in the source; their conditions may differ.

Key:
[1] = tested on: HCT116 spheroid cells; test: Immunostaining of p-ERKs and paxillin in spheroids in three-dimensional collagen gel (confocal microscope); format: cell-based, human; settings: U0126 (50 mM) or YH16899 (50 mM), a day
Experimental: Particularly, collagen type I was distributed in PDMS, which was treated with nothing for a day (FIG. 6A and FIG. 6B) or treated with U0126 (50 mM) or YH16899 (50 mM) (FIG. 6C and FIG. 6D). Collagen gel containing the cultured cells was fixed in 4% formaldehyde for 30 minutes, followed by the treatment with 30 mM glycine for 30 minutes. Permeabilization was induced by using 0.5% triton X-100 for 30 minutes, followed by blocking with 3% BSA solution for 2 hours. The unlabeled p-ERKs (cell signaling) and paxillin (BD bioscience) antibodies were treated thereto at 4° C. at least 16˜18 hours, followed by the treatment with the secondary antibody for at least 4 hours at room temperature. At last, DAPI (4′,6-diamidino-2-phenylindole) solution was treated thereto in order to stain nuclei. The stained cells were observed under confocal microscope.

[2] = tested on: HCT116 parental cells; settings: U0126 50 or 100 μM, 24 hours; vs control not treated
Experimental: Particularly, the HCT116 parental cells cultured in a three-dimensional collagen gel environment were either not treated with U0126 or treated with U0126, the ERKs inhibitor, at the concentration of 50 or 100 μM, followed by culture for 24 hours.

[3] = tested on: HCT116 cells; test: CK14 immunostaining of spheroids in three-dimensional collagen gel; format: cell-based, human; settings: U0126 (50 mM) or YH16899 (50 mM), a day, KRS expressing cells
Excerpt: In a three-dimensional collagen gel environment, the dissemination of cells was KRS expression-dependent, and the expressions of epithelial markers involved in cell-cell contact were reduced in the KRS knock-out cell lines. However in the KRS knock-out cell lines, the cell scattering was not observed in a two-dimensional culture environment and the dissemination was not observed in a three-dimensional collagen gel environment. So, in order to confirm whether or not the dissemination of cells from the spheroidically aggregated cells of KRS knock-out cell line in a three-dimensional collagen gel environment was attributed to the expression of epithelial marker, the cell line was cultured in a three-dimensional collagen gel environment for 24 hours. When the dissemination was observed, CK14 staining was performed and the cells were observed under confocal microscope.
Particularly, the collagen gel containing cells were distributed in PDMS, which was treated with nothing for a day (FIG. 9A) or treated with U0126 (50 mM) or YH16899 (50 mM) (FIG. 9B). The collagen gel containing the cultured cells was fixed in 4% paraformaldehyde for 30 minutes, which was then treated with 30 mM glycine for 30 minutes. Then, permeabilization was induced by using 0.5% triton X-100 for 30 minutes, followed by blocking with 3% BSA solution for 2 hours. […]

[4] = tested on: colorectal cancer cell line SW620; test: Dissemination of cells from SW620 spheroids in three-dimensional collagen gel (time-lapse imaging); format: cell-based, human; settings: SW620 parental cells treated with U0126 or YH16899
Excerpt: Various colorectal cancer cell lines (SW620, HCT15, SNU977, KM12SM, and SNU-05) were stably transfected with shKRS to suppress KRS expression (clones #2 and #5). Then, the dissemination was observed under time-lapse microscope (FIG. 17A) or the signaling activity was investigated after the treatment of YH16899 (FIG. 17B).
Particularly, the colorectal cancer cell lines SW620, HCT15, SNU977, KM12SM, and SNU-05 (Korean Cell Line Bank, Cancer Research Institute, Seoul National University) were distributed in a three-dimensional collagen gel environment as spheroids, followed by time-lapse imaging 6 hours later or followed by normal culture in a two-dimensional environment supplemented with 10% serum for 2 days. Then, lysis buffer (50 mM Tris-HCl, pH7.4, 1% NP-40, 0.25% sodium deoxycholate, 150 mM NaCl, 1 mM EDTA) was added thereto, followed by lysis to obtain cell lysate. The protein in the obtained cell lysate was quantified, followed by Western blotting with the labeled factors.

[5] = tested on: HCT116 spheroidically aggregated cells; test: Dissemination of cells from spheroidically aggregated cells in three-dimensional collagen gel (time-lapse microscope); format: cell-based, human; settings: HCT116 parental cells, U0126 50 μM, three-dimensional collagen gel, real-time live imaging
Experimental: Particularly, 2.5 mg/Ml of collagen containing cells was loaded in the magnetic 4-well chamber (Live Cell Instrument, Korea) for the culture system of time-lapse microscope, and the collagen was hardened in a 37° C. incubator for 30 minutes. When the collagen was fully solidified, PRMI-1640 supplemented with 10% FBS was added thereto. The magnetic chamber containing three-dimensional collagen gel and its corresponding adaptor were placed on the time-lapse microscope, followed by setting the multi-position. […] 5% CO2 incubator. Culture medium was added thereto every 6 hours in order for the collagen not to be dried. At this time, it is important to maintain the focus not to be changed. […]
As confirmed in the result of Example 14, when the HCT116 parental cells were treated with TGFβ1, the dissemination of cells from the spheroidically aggregated cells and migration thereof were observed. When the KRS knock-out cell line was treated with TGFβ1, the dissemination of cells was not observed. […] When the extracellular signal-regulated kinase (ERKs) inhibitor U0126 was treated to the HCT116 parental cells, it was presumed to be negative effect on the dissemination and migration of cells. To verify above, 50 μM of U0126, the ERKs inhibitor, was treated to the cell line, followed by observation of cell dissemination and migration by real-time live imaging of the spheroidically aggregated cells.

[6] = tested on: HCT116 parental cells; test: Western blotting of signaling factors in spheroidically aggregated cells in three-dimensional collagen gel; format: cell-based, human; settings: for phosphorylation of FAK / expression of E-cadherin / expression of paxillin / expression of β-catenin / phosphorylation of ERKs / phosphorylation of paxillin: 50 and 100 μM, three-dimensional collagen gel, Western blotting; for phosphorylation of FAK: a day (24 hours); for expression of E-cadherin / expression of paxillin / expression of β-catenin / phosphorylation of ERKs / phosphorylation of paxillin: a day
Experimental: Whole cell extract was collected, followed by Western blotting by the same manner as described in Example <7-2>. At this time, the primary antibodies of pY397FAK, FAK, p-ERKs, ERKs, pY118paxillin, paxillin, E-cadherin, β-catenin, KRS, α-tubulin, pAkt1/2/3, and caspase 3 were used.
SDS, Na3O4V, and protease inhibitor cocktails (GenDepot) were added to lysis buffer, followed by reaction at 4° C. for at least 1 hour. Centrifugation was performed at 4° C., at 13000 rpm, for 30 minutes. The supernatant was transferred into a new microcentrifuge tube. 4×SDS-PAGE sample buffer was added thereto, followed by boiling at 100° C. for 5 minutes. The extract was quantified by Western blotting using α-tubulin antibody (Sigma). Other protein expressions and phosphorylations were also measured by Western blotting.

Compound: N#CC(=C(/N)Sc1ccccc1N)/C(C#N)=C(\N)Sc1ccccc1N [U0126]
- ERKs phosphorylation level (p-ERKs immunostaining) [1]: inhibited significantly; also recorded: very low
- paxillin immunostaining level (paxillin expression) [1]: inhibited significantly; also recorded: significantly reduced
- expression level of E-cadherin mRNA [2]: significantly reduced
- CK14 expression [3]: significantly suppressed
- CK14 expression ([3]; listed as U1026): low and very low
- dissemination of cells from the three-dimensional spheroid cells [4]: not observed
- dissemination and migration of cells from the spheroid [5]: suppression
- dissemination and migration of cells from the spheroid ([5]; listed as ERKs inhibitor): did not cause cell migration and dissemination; also recorded: not induced
- dissemination and migration of cells from the spheroid ([5]; listed as ERKs inhibitors): inhibited
- dissemination and migration of cells from the spheroid ([5]; listed as U1026): inhibited
- phosphorylation of FAK [6]: suppressed
- phosphorylation of FAK ([6]; listed as ERKs inhibitor): significantly reduced
- expression of E-cadherin [6]: reduced
- expression of paxillin [6]: reduced
- expression of β-catenin [6]: reduced
- phosphorylation of ERKs [6]: suppressed
- phosphorylation of paxillin [6]: reduced; also recorded: suppressed
- expression of E-cadherin ([6]; listed as ERKs inhibitor): significantly reduced
- expression of paxillin ([6]; listed as ERKs inhibitor): significantly reduced
- phosphorylation of paxillin ([6]; listed as ERKs inhibitor): significantly reduced
- expression of E-cadherin ([6]; listed as U1026): decreased
- expression of paxillin ([6]; listed as U1026): inhibited
- expression of β-catenin ([6]; listed as U1026): decreased
- phosphorylation of ERKs ([6]; listed as U1026): inhibited
- phosphorylation of paxillin ([6]; listed as U1026): inhibited
- expression of the epithelial marker ([6]; HCT116 cell line in three-dimensional collagen gel, FIG. 18 legend): increased
